The values that follow come from US12358886B2, “Heterocyclic compounds for use in the treatment of cancer” (Artios Pharma Limited, priority 2019, dated 2025).

For the first assay, the target named is Polθ protein (amino acids 2-2590) (Homo sapiens, UniProt O75417). The assay can be described thus: Polθ full length enzyme potency assay (PicoGreen). The settings on record: Polθ IC50 (nM), full length N-His, C-term FLAG tagged Polθ, PicoGreen fluorescence, 12 point concentration response.
Sequence of Polθ protein (amino acids 2-2590) (O75417 2-2590): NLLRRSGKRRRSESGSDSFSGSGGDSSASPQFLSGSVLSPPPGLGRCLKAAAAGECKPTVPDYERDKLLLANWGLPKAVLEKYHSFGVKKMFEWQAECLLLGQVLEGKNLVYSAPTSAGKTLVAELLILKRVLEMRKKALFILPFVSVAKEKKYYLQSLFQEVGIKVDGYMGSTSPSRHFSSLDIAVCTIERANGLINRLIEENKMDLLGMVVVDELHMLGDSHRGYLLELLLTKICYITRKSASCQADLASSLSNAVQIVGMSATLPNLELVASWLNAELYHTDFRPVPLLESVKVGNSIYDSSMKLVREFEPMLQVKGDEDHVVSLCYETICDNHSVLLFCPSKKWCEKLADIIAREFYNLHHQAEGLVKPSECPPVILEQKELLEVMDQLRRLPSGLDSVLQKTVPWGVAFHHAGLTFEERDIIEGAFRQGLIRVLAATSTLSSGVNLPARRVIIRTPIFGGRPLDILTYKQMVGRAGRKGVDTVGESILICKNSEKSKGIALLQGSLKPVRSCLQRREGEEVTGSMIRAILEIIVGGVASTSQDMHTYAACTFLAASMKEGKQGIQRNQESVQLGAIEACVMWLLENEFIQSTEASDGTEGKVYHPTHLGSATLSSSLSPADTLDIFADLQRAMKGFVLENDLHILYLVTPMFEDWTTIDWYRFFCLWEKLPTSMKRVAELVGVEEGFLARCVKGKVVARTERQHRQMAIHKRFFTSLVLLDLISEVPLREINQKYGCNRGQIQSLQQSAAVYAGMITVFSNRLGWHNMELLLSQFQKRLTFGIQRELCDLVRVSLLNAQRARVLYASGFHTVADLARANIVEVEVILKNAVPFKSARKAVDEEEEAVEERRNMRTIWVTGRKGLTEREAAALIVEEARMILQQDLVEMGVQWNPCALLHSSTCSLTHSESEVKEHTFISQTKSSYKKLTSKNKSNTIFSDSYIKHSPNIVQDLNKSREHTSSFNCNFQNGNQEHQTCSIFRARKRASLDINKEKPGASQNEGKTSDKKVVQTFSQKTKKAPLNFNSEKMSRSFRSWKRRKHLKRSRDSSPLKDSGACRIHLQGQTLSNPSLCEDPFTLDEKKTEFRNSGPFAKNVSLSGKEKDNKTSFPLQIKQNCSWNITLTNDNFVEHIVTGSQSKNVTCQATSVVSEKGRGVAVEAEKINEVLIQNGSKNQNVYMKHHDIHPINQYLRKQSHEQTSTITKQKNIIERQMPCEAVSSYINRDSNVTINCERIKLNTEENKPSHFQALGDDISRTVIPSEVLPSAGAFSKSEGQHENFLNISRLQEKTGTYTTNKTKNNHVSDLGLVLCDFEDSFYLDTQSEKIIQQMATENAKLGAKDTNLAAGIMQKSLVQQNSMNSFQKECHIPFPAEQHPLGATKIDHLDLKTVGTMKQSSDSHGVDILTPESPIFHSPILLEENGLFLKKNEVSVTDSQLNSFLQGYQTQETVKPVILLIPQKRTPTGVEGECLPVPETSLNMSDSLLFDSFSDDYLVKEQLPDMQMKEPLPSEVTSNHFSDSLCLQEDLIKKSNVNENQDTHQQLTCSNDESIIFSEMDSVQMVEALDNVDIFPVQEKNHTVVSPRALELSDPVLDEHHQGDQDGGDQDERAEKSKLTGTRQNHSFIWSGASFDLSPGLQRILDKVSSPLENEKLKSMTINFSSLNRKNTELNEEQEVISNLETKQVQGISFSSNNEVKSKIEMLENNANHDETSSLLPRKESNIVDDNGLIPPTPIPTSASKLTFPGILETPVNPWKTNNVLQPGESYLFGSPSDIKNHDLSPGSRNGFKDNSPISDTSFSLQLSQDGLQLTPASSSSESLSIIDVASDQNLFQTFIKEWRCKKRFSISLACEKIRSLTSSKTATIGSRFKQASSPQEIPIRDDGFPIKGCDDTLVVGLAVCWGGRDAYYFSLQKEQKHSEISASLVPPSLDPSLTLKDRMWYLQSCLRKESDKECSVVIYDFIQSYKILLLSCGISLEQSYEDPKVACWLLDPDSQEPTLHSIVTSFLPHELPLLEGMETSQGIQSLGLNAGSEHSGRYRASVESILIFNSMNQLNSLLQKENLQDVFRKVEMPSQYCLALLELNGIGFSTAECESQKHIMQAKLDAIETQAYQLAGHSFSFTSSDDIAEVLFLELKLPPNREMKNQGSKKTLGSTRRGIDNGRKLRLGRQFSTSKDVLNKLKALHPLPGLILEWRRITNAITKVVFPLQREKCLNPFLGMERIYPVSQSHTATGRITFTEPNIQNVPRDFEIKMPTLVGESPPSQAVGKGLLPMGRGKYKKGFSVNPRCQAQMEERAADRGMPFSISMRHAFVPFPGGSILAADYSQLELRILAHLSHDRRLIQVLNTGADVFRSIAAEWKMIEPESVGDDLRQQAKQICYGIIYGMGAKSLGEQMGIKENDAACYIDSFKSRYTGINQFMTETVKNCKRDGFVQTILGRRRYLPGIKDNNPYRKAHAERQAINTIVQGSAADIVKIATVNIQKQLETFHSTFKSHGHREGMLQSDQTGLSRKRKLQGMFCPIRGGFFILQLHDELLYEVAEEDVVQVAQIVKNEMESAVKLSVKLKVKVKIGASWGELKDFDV
The term IC50 denotes the concentration that gives 50% inhibition. The molecule `CCN(C(=O)[C@@H]1C[C@@H](N(C)C)CN1c1nc(C)cc(C)c1C#N)c1cccc(C)c1` [Example 41, (2S,4R)-1-(3-Cyano-4,6-dimethylpyridin-2-yl)-4-(dimethylamino)-N-ethyl-N-(m-tolyl)pyrrolidine-2-carboxamide] gave an IC50 of 263 nM.

In turn, `CCN(C(=O)[C@@H]1C[C@H](N(C)C2CNC(=O)C2)CN1c1cc(C(F)(F)F)cc(C)n1)c1ccc(F)c(F)c1` (stereo partly drawn) [Example 145, (2S,4S)-N-(3,4-Difluorophenyl)-N-ethyl-4-(methyl(5-oxopyrrolidin-3-yl)amino)-1-(6-methyl-4-(trifluoromethyl)pyridin-2-yl)pyrrolidine-2-carboxamide] yielded an IC50 of 708 nM.

With `CCN(C(=O)[C@@H]1C[C@H](N2CCO[C@H](CO)C2)CN1c1nc(C)cc(C(F)(F)F)c1C#N)c1ccc(F)c(Cl)c1` [Example 154, (2S,4S)-N-(3-Chloro-4-fluorophenyl)-1-(3-cyano-6-methyl-4-(trifluoromethyl)pyridin-2-yl)-N-ethyl-4-((S)-2-(hydroxymethyl)morpholino)pyrrolidine-2-carboxamide], the IC50 was 15 nM.

`Cc1cccc(N(C(=O)[C@@H]2CCCN2c2nc(C)cc(C(F)(F)F)c2C#N)C(C)C)c1` [Example 2, (S)-1-(3-Cyano-6-methyl-4-(trifluoromethyl)pyridin-2-yl)-N-isopropyl-N-(m-tolyl)pyrrolidine-2-carboxamide] had an IC50 of 9 nM.

The molecule `CCN(C(=O)[C@@H]1C[C@H](N(C)C2COC2)CN1c1cc(C(F)(F)F)cc(C)n1)c1ccc(F)c(F)c1` [Example 146, (2S,4S)-N-(3,4-Difluorophenyl)-N-ethyl-4-(methyl(oxetan-3-yl)amino)-1-(6-methyl-4-(trifluoromethyl)pyridin-2-yl)pyrrolidine-2-carboxamide] registered an IC50 of 163 nM.

Regarding `CCN(C(=O)[C@@H]1C[C@H](N[C@@H]2CCOC[C@H]2O)CN1c1cc(C(F)(F)F)cc(C)n1)c1ccc(F)c(F)c1` [Example 131, (2S,4S)-N-(3,4-Difluorophenyl)-N-ethyl-4-(((3S,4R)-3-hydroxytetrahydro-2H-pyran-4-yl)amino)-1-(6-methyl-4-(trifluoromethyl)pyridin-2-yl)pyrrolidine-2-carboxamide], half-maximal inhibition (IC50) required 248 nM.

In the case of `Cc1cc(C(F)(F)F)cc(N2C(=O)N(CCN3CCN(CCO)CC3)C[C@H]2C(=O)N(C)c2ccc(F)c(Cl)c2F)n1` [Example 209, (S)-N-(3-Chloro-2,4-difluorophenyl)-1-(2-(4-(2-hydroxyethyl)piperazin-1-yl)ethyl)-N-methyl-3-(6-methyl-4-(trifluoromethyl)pyridin-2-yl)-2-oxoimidazolidine-4-carboxamide], half-maximal inhibition (IC50) was put at 8 nM.

Turning to `Cc1cc(C(C)(C)C)cc(N2C(=O)OC[C@H]2C(=O)N(C)c2ccc(F)c(Cl)c2)n1` [Example 123, (S)-3-(4-(tert-Butyl)-6-methylpyridin-2-yl)-N-(3-chloro-4-fluorophenyl)-N-methyl-2-oxooxazolidine-4-carboxamide], the IC50 is 36 nM.

On to `Cc1cc(C(F)(F)F)cc(N2C(=O)CC[C@H]2C(=O)N(C)c2ccc(F)c(C)n2)n1` [Example 60, (S)—N-(5-Fluoro-6-methylpyridin-2-yl)-N-methyl-1-(6-methyl-4-(trifluoromethyl)pyridin-2-yl)-5-oxopyrrolidine-2-carboxamide], for which half-maximal inhibition (IC50) required 76 nM.

For `Cc1cc(C)c(C#N)c(N2C[C@@H](O)C[C@H]2C(=O)N(C)c2cccc(C(F)F)c2)n1` [Example 12, (2S,4S)-1-(3-Cyano-4,6-dimethylpyridin-2-yl)-N-(3-(difluoromethyl)phenyl)-4-hydroxy-N-methylpyrrolidine-2-carboxamide], the IC50 was determined as 710 nM.

On to `Cc1cc(C(F)(F)F)cc(N2C(=O)OC[C@H]2C(=O)N(C)c2ccc3cc[nH]c3n2)n1` [Example 127, (S)—N-Methyl-3-(6-methyl-4-(trifluoromethyl)pyridin-2-yl)-2-oxo-N-(1H-pyrrolo[2,3-b]pyridin-6-yl)oxazolidine-4-carboxamide], for which the IC50 came to 15 nM.

As to `Cc1cc(C(F)(F)F)cc(N2C(=O)OC[C@H]2C(=O)N(C)c2ccc3cccnc3c2)n1` [Example 178, (S)—N-Methyl-3-(6-methyl-4-(trifluoromethyl)pyridin-2-yl)-2-oxo-N-(quinolin-7-yl)oxazolidine-4-carboxamide], the IC50 was found to be 833 nM.

`CCN(C(=O)[C@@H]1C[C@H](NC2CNC(=O)C2)CN1c1cc(C(F)(F)F)cc(C)n1)c1ccc(F)c(F)c1` (stereo partly drawn) [Example 137, (2S,4S)-N-(3,4-Difluorophenyl)-N-ethyl-1-(6-methyl-4-(trifluoromethyl)pyridin-2-yl)-4-((5-oxopyrrolidin-3-yl)amino)pyrrolidine-2-carboxamide] came in with an IC50 of 300 nM.

As for `Cc1cc(C(F)(F)F)cc(N2C(=O)NC[C@H]2C(=O)N(C)c2ccc3occ(C)c3n2)n1` [Example 236, (S)—N-Methyl-3-(6-methyl-4-(trifluoromethyl)pyridin-2-yl)-N-(3-methylfuro[3,2-b]pyridin-5-yl)-2-oxoimidazolidine-4-carboxamide], inhibition was half-maximal at 14 nM (IC50).

Consider `Cc1cc(C(F)(F)F)cc(N2C(=O)N(CC3CNCCO3)C[C@H]2C(=O)N(C)c2ccc(F)c(Cl)c2F)n1` (stereo partly drawn) [Example 218, (4S)—N-(3-Chloro-2,4-difluorophenyl)-N-methyl-3-(6-methyl-4-(trifluoromethyl)pyridin-2-yl)-1-(morpholin-2-ylmethyl)-2-oxoimidazolidine-4-carboxamide], for which the IC50 was determined as 16 nM.

For the molecule `Cc1cc(C(F)(F)F)cc(N2C(=O)[C@@H](O)[C@@H](O)[C@H]2C(=O)N(C)c2ccc3cnn(C)c3c2)n1` [Example 168, (2S,3S,4S)-3,4-Dihydroxy-N-methyl-N-(1-methyl-1H-indazol-6-yl)-1-(6-methyl-4-(trifluoromethyl)pyridin-2-yl)-5-oxopyrrolidine-2-carboxamide], the IC50 amounted to 71 nM.

`Cc1cc(C(F)(F)F)cc(N2C(=O)N(CC(=O)N(C)C)C[C@H]2C(=O)N(C)c2ccc(F)c(Cl)c2)n1` [Example 185, (S)-N-(3-Chloro-4-fluorophenyl)-1-(2-(dimethylamino)-2-oxoethyl)-N-methyl-3-(6-methyl-4-(trifluoromethyl)pyridin-2-yl)-2-oxoimidazolidine-4-carboxamide] showed an IC50 of 10 nM.

`Cc1cc(C(F)(F)F)cc(N2C(=O)N(CCN=S(C)(C)=O)C[C@H]2C(=O)N(C)c2ccc(F)c(Cl)c2)n1` [Example 228, (S)—N-(3-Chloro-4-fluorophenyl)-1-(2-((dimethyl(oxo)-16-sulfaneylidene)amino)ethyl)-N-methyl-3-(6-methyl-4-(trifluoromethyl)pyridin-2-yl)-2-oxoimidazolidine-4-carboxamide] gave an IC50 of 62 nM.

In turn, `CCN(C(=O)[C@H]1C[C@@H](N(C)C2CCNC2)CN1c1nc(C)cc(C)c1C#N)c1cccc(C)c1` (stereo in doubt) [Example 48, (2R,4R)-1-(3-Cyano-4,6-dimethylpyridin-2-yl)-N-ethyl-4-(methyl(pyrrolidin-3-yl)amino)-N-(m-tolyl)pyrrolidine-2-carboxamide] showed an IC50 of 573 nM.

In the case of `Cc1cc(C(F)(F)F)cc(N2C(=O)[C@H](O)[C@H](O)[C@H]2C(=O)N(C)c2ccc(F)c(Cl)c2)n1` [Example 72, (2S,3R,4R)—N-(3-Chloro-4-fluorophenyl)-3,4-dihydroxy-N-methyl-1-(6-methyl-4-(trifluoromethyl)pyridin-2-yl)-5-oxopyrrolidine-2-carboxamide], the IC50 stood at 32 nM.

For the molecule `CCN(C(=O)[C@@H]1C[C@H](N(C)[C@@H]2COCC[C@H]2O)CN1c1cc(C(F)(F)F)cc(C)n1)c1ccc(F)c(F)c1` [Example 140, (2S,4S)-N-(3,4-Difluorophenyl)-N-ethyl-4-(((3R,4R)-4-hydroxytetrahydro-2H-pyran-3-yl)(methyl)amino)-1-(6-methyl-4-(trifluoromethyl)pyridin-2-yl)pyrrolidine-2-carboxamide], half-maximal inhibition (IC50) was put at 60 nM.

The molecule `Cc1cc(C(F)(F)F)cc(N2C(=O)[C@@H](COCc3ccccc3)C[C@H]2C(=O)N(C)c2ccc(F)c(Cl)c2)n1` [Example 76, (2S,4R)-4-((Benzyloxy)methyl)-N-(3-chloro-4-fluorophenyl)-N-methyl-1-(6-methyl-4-(trifluoromethyl)pyridin-2-yl)-5-oxopyrrolidine-2-carboxamide] came in with an IC50 of 24 nM.

As to `CN(C(=O)[C@@H]1COC(=O)N1c1cc(C(F)(F)F)cc(Cl)n1)c1ccc(F)c(Cl)c1` [Example 113, (S)-3-(6-Chloro-4-(trifluoromethyl)pyridin-2-yl)-N-(3-chloro-4-fluorophenyl)-N-methyl-2-oxooxazolidine-4-carboxamide], the IC50 was 21 nM.

Take `CCN(C(=O)[C@@H]1C[C@H](N[C@@H]2CCC[C@H]2O)CN1c1cc(C(F)(F)F)cc(C)n1)c1ccc(F)c(F)c1` [Example 133, (2S,4S)-N-(3,4-Difluorophenyl)-N-ethyl-4-(((1R,2R)-2-hydroxycyclopentyl)amino)-1-(6-methyl-4-(trifluoromethyl)pyridin-2-yl)pyrrolidine-2-carboxamide]: the IC50 was determined as 122 nM.

For `Cc1cc(C(F)(F)F)cc(N2C(=O)[C@@H](O)[C@@H](O)[C@H]2C(=O)N(C)c2ccc3ccn(C)c3n2)n1` [Example 167, (2S,3S,4S)-3,4-Dihydroxy-N-methyl-N-(1-methyl-1H-pyrrolo[2,3-b]pyridin-6-yl)-1-(6-methyl-4-(trifluoromethyl)pyridin-2-yl)-5-oxopyrrolidine-2-carboxamide], the IC50 worked out at 56 nM.

Staying with this assay, now noted: read-out: Polθ IC50; full length N-His, C-term FLAG tagged Polθ, PicoGreen fluorescence, 12 point concentration response.
For `Cc1cc(C(F)(F)F)cc(N2C(=O)N(CC3CN(C)C(=O)O3)C[C@H]2C(=O)N(C)c2ccc(F)c(Cl)c2F)n1` (single isomer, unassigned; isomer 1) [Example 229], the IC50 stood at 15 nM.

On to `CCN(C(=O)[C@@H]1C[C@H](O)CN1c1nc(C)cc(C(F)(F)F)c1C#N)c1cccc(C)c1` [Example 22, (2S,4S)-1-(3-Cyano-6-methyl-4-(trifluoromethyl)pyridin-2-yl)-N-ethyl-4-hydroxy-N-(m-tolyl)-pyrrolidine-2-carboxamide], for which the IC50 is 27 nM.
